Data on 1 molecule can be found in patent US10265327B2, “V1A antagonists to treat phase shift sleep disorders” (Hoffmann-La Roche Inc., priority 2013, dated 2019).

For assay [1], the target named is T1, human V1b receptor (hV1b) (Homo sapiens, UniProt P47901).
T1 construct: expressed in transfected cells; host or cells: HEK cells, transient transfection; membrane preparation
T1 sequence (P47901 1-424): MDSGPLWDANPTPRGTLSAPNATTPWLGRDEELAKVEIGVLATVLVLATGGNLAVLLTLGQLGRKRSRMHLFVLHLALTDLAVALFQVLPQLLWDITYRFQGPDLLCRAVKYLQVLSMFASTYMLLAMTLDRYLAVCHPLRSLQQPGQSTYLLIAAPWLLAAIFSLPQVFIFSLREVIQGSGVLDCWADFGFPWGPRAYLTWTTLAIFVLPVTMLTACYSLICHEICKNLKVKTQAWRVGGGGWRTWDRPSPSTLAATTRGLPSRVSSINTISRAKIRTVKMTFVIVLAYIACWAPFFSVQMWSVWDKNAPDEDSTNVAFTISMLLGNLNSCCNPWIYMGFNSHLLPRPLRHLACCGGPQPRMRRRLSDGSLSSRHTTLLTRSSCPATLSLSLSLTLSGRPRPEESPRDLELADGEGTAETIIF
Description: Radioligand binding assay (3H-AVP, SPA), human V1b. Particulars: (n); 1 nM 3H-AVP; read-out: pKi V1b Human (converted). The method, then:
(§1) The test compound was initially dissolved in DMSO at a concentration of 10 mM. Subsequent dilutions were made in assay buffer with a maximum final concentration of 0.2% DMSO.
(§2) Recombinant vasopressin V1a (human: hV1a; mouse: mV1a), V1b (human: hV1b) were independently expressed in human embryonic kidney (HEK) cells using transient transfection. The cell membranes expressing the various receptors were prepared by homogenizing (using Polytron homogenizer) the cell culture pellet in lysis buffer (50 mM HEPES, 1 mM EDTA, 10 mM MgCl2, pH 7.4 with protease inhibitors), then centrifuging the resulting suspension at 500 g for 20 min at 4° C. The supernatant was subsequently re-centrifuged at 43,000 g for 1 hour at 4° C. […] The concentration of protein was determined, and the membranes were aliquoted and stored at −80° C. until further use.
(§3) All radioligand binding assays were carried out in 96-well plates in the presence of 1 nM ^3H-AVP (vasopressin) radioligand, and 10 concentrations of test compound (ranging from 27 μM-1 nM or 2.7 μM-0.1 nM for hV1a binding). […] Filtration assays were terminated by rapid filtration under vacuum through GF/C filters, presoaked for 5 min with buffer B containing Tris 50 mM, MgCl2 5 mM, 0.1% BSA (pH 7.4), followed by 5×0.4 ml washes of ice-cold buffer B. For both SPA and filtration plates, bound ligand was determined using a Packard Topcount scintillation counter. […]

In assay [2] the target is T2, mouse V1a receptor (mV1a) (Mus musculus, UniProt Q62463).
T2 construct: expressed in transfected cells; host or cells: HEK cells, transient transfection; membrane preparation
T2 sequence (Q62463 whole entry): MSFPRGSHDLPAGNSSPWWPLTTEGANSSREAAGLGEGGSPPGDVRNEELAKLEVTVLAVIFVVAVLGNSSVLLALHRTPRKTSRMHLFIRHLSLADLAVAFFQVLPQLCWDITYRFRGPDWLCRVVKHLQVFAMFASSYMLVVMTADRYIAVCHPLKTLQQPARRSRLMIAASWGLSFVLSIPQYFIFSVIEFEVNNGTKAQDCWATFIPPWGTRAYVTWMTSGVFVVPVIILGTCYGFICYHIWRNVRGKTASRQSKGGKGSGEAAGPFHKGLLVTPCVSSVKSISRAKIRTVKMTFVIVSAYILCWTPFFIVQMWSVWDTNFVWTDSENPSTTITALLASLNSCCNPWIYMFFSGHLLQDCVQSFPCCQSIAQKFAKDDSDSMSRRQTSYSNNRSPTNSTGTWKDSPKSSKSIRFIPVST
The experiment in a line: Radioligand binding assay (3H-AVP, filtration), mouse V1a. To be noted: Ki ± SEM (n); 1 nM 3H-AVP. The method, then: as §1, §2, §3

In the case of `CN1Cc2cc(Cl)ccc2-n2c(nnc2[C@H]2CC[C@H](Oc3ccccn3)CC2)C1` [Example 1, trans-8-chloro-5-methyl-1-(4-pyridin-2-yloxycyclohexyl)-4,6-dihydro-[1,2,4]triazolo[4,3-a][1,4]benzodiazepine], the Ki was above 31600 nM in assay [1] and 77 ± 2 nM in assay [2].
